Values joined by “and” are separate entries in the source; they are usually repeats but may differ in a detail not shown here. Equal values may be shown once. “Also recorded” adds a separate entry of the source.
Key:
Type in all cases: in vivo, human
[1] = test system: patients with PD; test: Circadian rhythm of wrist skin temperature; details: oral, 12 patients with evaluable data
Protocol: (6) I-Button Temperature Assessment. The I-Button is a small, rugged self-sufficient system that measures temperature and records the results in a protected memory section. The Thermochron I-Button DS1921H (Maxim Integrated, Dallas, Tex.) was used for skin temperature measurement. I-Buttons were programmed to sample every 10 mins., and attached to a double-sided cotton sport wrist band using Velcro, with the sensor face of the I-Button placed over the inside of the wrist, on the radial artery of the dominant hand. Subjects removed and replaced the data logger when necessary (i.e., to have a bath or shower). […] From the collected data, the mesor, amplitude, acrophase (time of peak temperature), Rayleight test (an index of interdaily stability), mean waveforms are calculated);
Assessments were made at baseline and at the end of the fixed dose and washout periods. Circadian system status was evaluated by continuously monitoring wrist skin temperature (Thermochron iButton DS1921H; Maxim, Dallas) following published procedures (Sarabia et al. 2008).
Circadian rhythm of skin temperature was evaluable in 12 patients (i.e., those who had recordings that extended from baseline through washout). Circadian system functionality was evaluated by continuously monitoring wrist skin temperature using a temperature sensor (Thermochron iButton DS1921H; Maxim, Dallas, Tex.) (Sarabia et al. 2008). […]

[2] = test system: patients with PD; test: Sleep diary: total sleep time and REM-behavior disorder
Text: (5) Sleep Diary (participants completed a sleep diary on a daily basis throughout the study. The diaries included time into bed and estimated time to sleep as well as wake time and duration during the night);
Exploratory end-points, in addition to constipation, included for example, (i) depression assessed using the Beck Depression Inventory (BDI-II) (Steer et al. 2000) and Unified Parkinson's Disease Rating Scale (UPDRS); (ii) cognition assessed using the Mini Mental State Examination (MMSE) (Palsteia et al. 2018), Unified Parkinson's Disease Rating Scale (UPDRS), and Trail Making Test (TMT); (iii) sleep and REM-behavior disorder (RBD) using a daily sleep diary, I-Button Temperature Assessment, a REM sleep behavior disorder (RBD) questionnaire (RBDQ) (Stiasny-Kolster et al. 2007), and the UPDRS; (iv) hallucinations assessed using the PD hallucinations questionnaire (PDHQ) (Papapetropoulos et al. 2008), the UPDRS, and direct questioning; (v) fatigue using the Parkinson's Disease Fatigue Scale (PFS-16) and the UPDRS; (vi) motor functions using the UPDRS; and (vii) non-motor functions using the UPDRS.

[3] = test system: patients with PD and constipation; test: Bowel function (prokinetic response, stool diary indices), Phase 2 trial; details: for Cumulative prokinetic response rate (CSBM within 24 hours of dosing): Stage 1, single dose; for Prokinetic response rate (CSBM within 24 hours of dosing on at least 2 of 3 days): Stage 2, daily dosing; for CSBM, weekly average: baseline 1.2 (0.90); for PAC-SYM: baseline 1.3 (0.45); for SBM, weekly average: baseline 2.6 (1.45)
Protocol: Following successful screening, all subjects underwent a 14-day run-in period where the degree of constipation was assessed through a validated daily log (Zinsmeister et al. 2013) establishing baseline CSBMs/week. Subjects with an average of <3 CSBMs/week proceeded to dosing.
Tolerability limits included diarrhea or vomiting.
In Stage 2, 34 patients were evaluated.
The primary efficacy outcome variable was whether or not a subject was a “success” or “failure”. This is an endpoint based on subject diary entries for the “fixed dose” period prior to the endpoint assessment defined as average complete stool frequency increase by 1 or more over baseline, or 3 or more complete spontaneous stools/week. The subject was deemed a “success” if s/he met one or more of the criteria listed above, otherwise the subject was deemed a “failure”. The primary analysis was based on all subjects with a baseline assessment and an assessment at the end of the “fixed-dose” period and was a comparison of the proportion of successes with 0.10 (the null hypothesis corresponding to no treatment effect).

[4] = Stage 2, n = 34, fixed dose, mean (SD)

SMILES: CC(C)[C@@H](CC[C@@H](C)[C@H]1CC[C@H]2[C@@H]3[C@H](O)C[C@H]4C[C@@H](NCCCNCCCCN)CC[C@]4(C)[C@H]3CC[C@]12C)OS(=O)(=O)O (single isomer, unassigned) [squalamine (ENT-01)]
- Circadian rhythm of skin temperature, overall [1]: significant positive impact; also recorded: improved all markers of healthy circadian function
- Dose beyond which total sleep time was consistently higher than baseline ([2]; Stage 2): > 125 mg
- Total sleep time ([2]; at 250 mg, baseline 7.1 hours): 8.4 h
- Frequency of arm or leg thrashing (sleep diary) ([2]; at maximal dose, baseline 2.2): 0 episodes/week
- Patients responding within the effective dose range ([3]; 75 mg to 250 mg): 85%
- Cumulative prokinetic response rate (CSBM within 24 hours of dosing) ([3]; 25 mg): 25%
- Cumulative prokinetic response rate (CSBM within 24 hours of dosing) ([3]; 200 mg (maximum)): 80%
- Median efficacious dose ([3]; Stage 2): 100 mg
- Prokinetic response rate (CSBM within 24 hours of dosing on at least 2 of 3 days) ([3]; 75 mg): 26%
- Prokinetic response rate (CSBM within 24 hours of dosing on at least 2 of 3 days) ([3]; 250 mg): 85.3%
- CSBM, weekly average [3, 4]: 3.8 /week and 3.8 (2.4) /week
- PAC-SYM [3, 4]: 1.1 (0.49)
- Suppository use / rescue medication, weekly average ([3]; Stage 2, n = 34, fixed dose, mean (SD), baseline 1.8 (1.92)): 0.3 /week
- SBM, weekly average [3, 4]: 4.5 /week
- CSBM, weekly average ([3]; Stage 2, wash-out, mean (SD)): 1.8 (1.19) /week
- PAC-SYM ([3]; Stage 2, wash-out, mean (SD)): 1.1 (0.60)
- PAC-QOL ([3]; Stage 2, wash-out, mean (SD), baseline 1.4 (0.49)): 1.2 (0.63)
- Rescue meds, weekly average ([3]; Stage 2, wash-out, mean (SD), baseline 1.8 (1.92)): 1.0 (1.40) /week
- SBM, weekly average ([3]; Stage 2, wash-out, mean (SD)): 3.2 (1.80) /week
- Stool consistency (Bristol stool scale 1-7) ([3]; Stage 2, wash-out, mean (SD), baseline 2.7 (1.20)): 2.8 (1.39)
- Ease of passage (Ease of evacuation scale 1-7) ([3]; Stage 2, wash-out, mean (SD), baseline 3.2 (0.73)): 3.3 (0.81)
- CSBM frequency, randomized cohort ([3]; group later randomized to placebo (n = 9), fixed dose period on drug, baseline 1.6): 3.3 CSBM/week
- CSBM frequency, randomized cohort ([3]; group randomized to treatment (n = 6), fixed dose period, baseline 0.8): 3.2 CSBM/week
- CSBM frequency, randomized cohort ([3]; group randomized to treatment (n = 6), randomized period 4-6 days, baseline 0.8): 2.4 CSBM/week
- CSBM frequency, randomized cohort ([3]; group randomized to treatment (n = 6), washout, baseline 0.8): 0.9 CSBM/week
- Mean dose required for a bowel response ([3]; patients with baseline constipation of <1 CSBM/week): 192 mg
- Mean dose required for a bowel response ([3]; patients with baseline ≥1 CSBM/week): 120 mg
